Measurements as given in patent publication US4695552A, “Process and reagent for the determination of the hemoglobin-haptoglobin complex in the presence of free hemoglobin” (Boehringer Mannheim GmbH, priority 1983, dated 1987).

Legend:
Format in all cases: biochemical
[1] = molecular target: T1, hemoglobin haptoglobin complex (Hb:Hp) (Homo sapiens, UniProt P68871+P69905); test: Peroxidase reaction of hemoglobin-haptoglobin complex with peroxide and guaiacol as substrate, with detergent added; conditions: digitonin 0.5 mg./ml.; guaiacol 30 mmol/l.; pH 4.0
Experimental: (§1) 2 ml. of a reagent solution containing 0.1 mol/liter of sodium acetate buffer (pH 4.0) and 30 or 15 mmol/liter of guaiacol are mixed with 0.05 ml. of a sample solution which contains free hemoglobin or a hemoglobin-haptoglobin complex with a hemoglobin concentration of 0.25 mg. Hb/ml. The peroxidase reaction is started with 0.1 ml. of 0.58 molar sodium perborate solution in 0.15 molar citric acid and the color development is monitored by extinction measurement at 436 nm. The reaction temperature is 25° C. After a certain time, the color development comes to a stop. Because of the instability of the colored material, the extinction again decreases. The extinction changes given in the following Table 4 are the initial velocities determined by plotting the tangents on the extinction-time curves.
(§2) Analogous measurements are carried out in which, to the reagent solution, there has been added, in each case, one of the detergents given in Table 4 in the there-given concentration.

free hemoglobin (Hb) [2] = molecular target: T2, free hemoglobin (Hb) (Homo sapiens, UniProt P68871+P69905); test: Peroxidase reaction of free hemoglobin with perborate and ABTS as substrate, with detergent added; conditions: ABTS 0.5 mmol/l., pH 3.8, 0.25 mg. Hb/ml.
Experimental: (§3) 2 ml. of a reagent solution containing 0.1 mol/liter of sodium citrate buffer (pH 3.8) and 0.5 mmol/liter ABTS are mixed with 0.025 ml. of a sample solution which contains free hemoglobin or the hemoglobin-haptoglobin complex with a hemoglobin concentration of 0.25 mg. Hb/ml. The peroxidase reaction is started with 0.020 ml. of 0.58 molar sodium perborate solution in 0.15 molar citric acid and the color development is monitored by extinction measurement at 436 nm. The reaction temperature is 25° C.
(§4) Analogous measurements are carried out in which, in addition to the above-mentioned components, there are added to the reagent solution the detergents mentioned in the following Table 3 in the concentrations there also given.

[3] = molecular target: T1, hemoglobin haptoglobin complex (Hb:Hp); test: Peroxidase reaction of hemoglobin-haptoglobin complex with perborate and ABTS as substrate, with detergent added; conditions: ABTS 0.5 mmol/l., pH 3.8
Experimental: as §3, §4

free hemoglobin (Hb) [4] = molecular target: T2, free hemoglobin (Hb); test: Peroxidase reaction of free hemoglobin with peroxide and guaiacol as substrate, with detergent added; conditions: digitonin 0.5 mg./ml.; guaiacol 30 mmol/l.; pH 4.0; 0.25 mg. Hb/ml.
Experimental: as §1, §2

T2 sequence (P69905 2-142 limits assumed): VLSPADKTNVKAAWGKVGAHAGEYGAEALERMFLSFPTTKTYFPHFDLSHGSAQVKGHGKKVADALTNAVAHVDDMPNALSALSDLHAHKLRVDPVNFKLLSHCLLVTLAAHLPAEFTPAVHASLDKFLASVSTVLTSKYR
T2 sequence (P68871 2-147 limits assumed): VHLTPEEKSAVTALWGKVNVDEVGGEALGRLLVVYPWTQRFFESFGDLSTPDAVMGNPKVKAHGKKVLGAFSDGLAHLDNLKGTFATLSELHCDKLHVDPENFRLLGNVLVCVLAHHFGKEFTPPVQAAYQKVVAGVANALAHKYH
T1 sequence (P69905 2-142 limits assumed): as the sequence (P69905 2-142 limits assumed) above
T1 sequence (P68871 2-147 limits assumed): as the sequence (P68871 2-147 limits assumed) above
T1 sequence (P00738 162-406 partner limits assumed): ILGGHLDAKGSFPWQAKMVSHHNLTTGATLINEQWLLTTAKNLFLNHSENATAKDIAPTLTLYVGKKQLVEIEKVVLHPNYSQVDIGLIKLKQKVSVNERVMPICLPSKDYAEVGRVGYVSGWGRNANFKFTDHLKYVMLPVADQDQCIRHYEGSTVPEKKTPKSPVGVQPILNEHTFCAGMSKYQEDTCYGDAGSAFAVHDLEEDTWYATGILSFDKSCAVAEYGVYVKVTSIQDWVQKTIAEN

SMILES: C[C@@H]1CC[C@@]2(OC1)O[C@H]1[C@@H](O)[C@H]3[C@@H]4CC[C@H]5C[C@@H](O[C@@H]6O[C@H](CO)[C@H](O[C@@H]7O[C@H](CO)[C@@H](O)[C@H](O[C@@H]8OC[C@@H](O)[C@H](O)[C@H]8O)[C@H]7O[C@@H]7O[C@H](CO)[C@H](O)[C@H](O[C@@H]8O[C@H](CO)[C@@H](O)[C@H](O)[C@H]8O)[C@H]7O)[C@H](O)[C@H]6O)[C@H](O)C[C@]5(C)[C@H]4CC[C@]3(C)[C@H]1[C@@H]2C [digitonin]
- Hb:Hp / Hb [1]: 50
- ΔE/min. Hb:Hp [1]: 154 mE/min.
- ΔE/min. Hb (free hemoglobin (Hb) [2]; digitonin 0.15 mg./ml.): 21.8 mE/min.
- ΔE/min. Hb (free hemoglobin (Hb) [2]; digitonin 0.3 mg./ml.): 20 mE/min.
- Hb:Hp / Hb ([3]; digitonin 0.15 mg./ml.): 37.6
- ΔE/min. Hb:Hp ([3]; digitonin 0.15 mg./ml.): 818 mE/min.
- Hb:Hp / Hb ([3]; digitonin 0.3 mg./ml.): 41
- ΔE/min. Hb:Hp ([3]; digitonin 0.3 mg./ml.): 818 mE/min.
- ΔE/min. Hb (free hemoglobin (Hb) [4]): 3 mE/min.
